Where two headings read alike, the source gives them in different places.
What was measured:
[1] = target: T1, human PPARalpha (Homo sapiens, UniProt Q07869); assay: Cellular PPARalpha assay (HEK luciferase reporter cell line); format: cell-based; settings: PPARalpha reporter cell line (HEK, GR-GAL4-humanPPARalpha-LBD)
T1 construct: amino acids S167-Y468; expressed in transfected cells; plasmid pcDNA3
T1 sequence (Q07869 167-468): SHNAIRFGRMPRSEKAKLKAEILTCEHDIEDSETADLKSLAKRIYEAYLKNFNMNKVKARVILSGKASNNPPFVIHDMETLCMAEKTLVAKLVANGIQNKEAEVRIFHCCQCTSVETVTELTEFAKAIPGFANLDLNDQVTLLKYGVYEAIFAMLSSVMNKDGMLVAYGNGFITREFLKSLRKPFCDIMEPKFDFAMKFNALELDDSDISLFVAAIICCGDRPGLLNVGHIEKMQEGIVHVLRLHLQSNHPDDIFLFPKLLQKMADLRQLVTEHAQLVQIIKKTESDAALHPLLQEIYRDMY
Protocol: Determination of EC50 Values of PPAR Agonists In the Cellular PPARalpha Assay
The potency of substances which bind to human PPARalpha and activate it in an agonistic manner is analyzed using a stably transfected HEK cell line (HEK=human embryo kidney) which is referred to here as PPARalpha reporter cell line. It contains two genetic elements, a luciferase reporter element (pdeltaM-GAL4-Luc-Zeo) and a PPARalpha fusion protein (GR-GAL4-humanPPARalpha-LBD) which mediates expression of the luciferase reporter element depending on a PPARalpha ligand. The stably and constitutively expressed fusion protein GR-GAL4-humanPPARalpha-LBD binds in the cell nucleus of the PPARalpha reporter cell line via the GAL4 protein portion to the GAL4 DNA binding motifs 5′-upstream of the luciferase reporter element which is stably integrated in the genome of the cell line. There is only weak expression of the luciferase reporter gene in the absence of a PPARalpha ligand if fafty acid-depleted fetal calf serum (cs-FCS) is used in the assay. PPARalpha ligands bind and activate the PPARalpha fusion protein and thereby stimulate the expression of the luciferase reporter gene. The luciferase which is formed can be detected by means of chemiluminescence via an appropriate substrate. […]
The activity of PPARalpha agonists is determined in a 3-day assay which is described below: […]

[2] = target: T2, human PPARdelta (Homo sapiens, UniProt Q03181); assay: Cellular PPARdelta assay (HEK luciferase reporter cell line); format: cell-based; settings: PPARdelta reporter cell line (HEK, GR-GAL4-humanPPARdelta-LBD)
T2 construct: amino acids S139-Y441; expressed in transfected cells; plasmid pcDNA3
T2 sequence (Q03181 139-441): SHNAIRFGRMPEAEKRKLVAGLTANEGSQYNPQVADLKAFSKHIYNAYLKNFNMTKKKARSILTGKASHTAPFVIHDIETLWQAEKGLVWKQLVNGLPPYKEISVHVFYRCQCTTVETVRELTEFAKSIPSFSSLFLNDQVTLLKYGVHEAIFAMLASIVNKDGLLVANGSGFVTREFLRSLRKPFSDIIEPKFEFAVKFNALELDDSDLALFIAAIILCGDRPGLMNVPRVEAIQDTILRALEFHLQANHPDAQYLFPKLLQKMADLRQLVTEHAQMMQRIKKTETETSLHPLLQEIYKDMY
Protocol: The potency of substances which bind to human PPARdelta and activate it in an agonistic manner is analyzed using a stably transfected HEK cell line (HEK=human embryo kidney) which is referred to here as PPARdelta reporter cell line. In analogy to the assay described for PPARalpha, the PPARdelta reporter cell line also contains two genetic elements, a luciferase reporter element (pdeltaM-GAL4-Luc-Zeo) and a PPARdelta fusion protein (GR-GAL4-humanPPARdelta-LBD) which mediates expression of the luciferase reporter element depending on a PPARdelta ligand. The stably and constitutively expressed fusion protein GR-GAL4-humanPPARdelta-LBD binds in the cell nucleus of the PPARdelta reporter cell line via the GAL4 protein portion to the GAL4 DNA binding motifs 5′-upstream of the luciferase reporter element which is stably integrated in the genome of the cell line. […] The luciferase which is formed can be detected by means of chemiluminescence via an appropriate substrate. […]
The activity of PPARdelta agonists is determined in a 3-day assay in exact analogy to the procedure already described for the PPARalpha reporter cell line except that the PPARdelta reporter cell line and a specific PPARdelta agonist was used as a standard to control test efficacy.

[3] = test system: PPARdelta; settings: diabetic animal model; cited from earlier work
[4] = test system: PPARdelta; settings: obese, insulin resistant rhesus monkeys; cited from earlier work
[5] = test system: PPARdelta/PPARalpha; settings: rhesus and cynomolgus monkeys; cited from earlier work
[6] = test system: PPARdelta/PPARalpha; settings: two weeks clinical trials in healthy volunteers; cited from earlier work

## CCCCc1nc(-c2ccc(C(F)(F)F)cc2)sc1Cn1ccc2cc(OCC(=O)O)cnc21 [Example 1, {1-[4-Butyl-2-(4-trifluoromethyl-phenyl)-thiazol-5-ylmethyl]-1H-pyrrolo[2,3-b]pyridin-5-yloxy}-acetic acid]
[1]
  EC50: 0.04 µM
[2]
  EC50: 0.47 µM

## CCCCc1nc(-c2ccc(C(F)(F)F)cc2)sc1Cn1ccc2c(CCC)c(OCC(=O)O)cnc21 [Example 2, {1-[4-Butyl-2-(4-trifluoromethyl-phenyl)-thiazol-5-ylmethyl]-4-propyl-1H-pyrrolo[2,3-b]pyridin-5-yloxy}-acetic acid]
[1]
  EC50: 0.32 µM
[2]
  EC50: 0.14 µM

## CCCc1c(OCCCOc2ccc(OCC(=O)O)cc2)ccc(C(C)=O)c1O [Example L-165041]
[3]
  plasma cholesterol: raises plasma cholesterol

## Cc1cc(SCc2sc(-c3ccc(C(F)(F)F)cc3)nc2C)ccc1OCC(=O)O [GW501516]
[4]
  HDL-cholesterol: raises
  plasma LDL-cholesterol: decreases
  plasma insulin levels: decreases
  plasma triglycerides: decreases

## CCCc1c(OCCCSc2nnc(SCC(=O)O)s2)ccc(C(C)=O)c1O [YM-16638]
[5]
  plasma lipids: significantly lowers plasma lipids
[6]
  plasma lipids: acts in a similar manner

From patent US7541464B2, “7-azaindoles, pharmaceutical compositions and their therapeutic applications” (Sanofi-Aventis Deutschland GmbH, priority 2004, dated 2009)
